Reference: PubChem BioAssay (NCI)
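Tested at 5 concentrations; 48 h exposure; 96-well plates; endpoints linearly interpolated, else capped at highest concentration. TGI: concentration producing complete growth inhibition.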

test system: NCI-H226 lung; assay: NCI-60 cell line screen, 48 h

Question: With `Clc1ccc(-c2nc3ccc(Cl)cc3[nH]2)cc1` as the compound, how does the TGI read?
Answer: > 100 µM

Question: Which TGI does the source give for `O=C(Nc1ccn(C2CCC(CO)O2)c(=O)n1)c1ccccc1` (stereo unspecified) here?
Answer: > 100 µM

test system: NCI-H23 lung; assay: NCI-60 cell line screen, 48 h

Question: Which TGI does the source give for `CN1CCN(CCCNN)CC1` here?
Answer: > 100 µM

Question: How did the TGI turn out when `CC(C)(C)[Si](C)(C)OC1(CCc2ccccc2OS(=O)(=O)C(F)(F)F)CCCC=C1COCc1ccccc1` (stereo unspecified) was run?
Answer: > 100 µM

Question: Which TGI does the source give for `C=CCOC1=C(OC(C)=O)C(=O)OC1C1COC(C)(C)O1` (stereo unspecified) here?
Answer: > 83.2 µM

Question: Which TGI does the source give for `Clc1ccc(-c2nc3ccc(Cl)cc3[nH]2)cc1` here?
Answer: 90.3 µM

Question: `O=C(Nc1ccn(C2CCC(CO)O2)c(=O)n1)c1ccccc1` (stereo unspecified) was tested. Which TGI did it give?
Answer: > 100 µM

test system: NCI-H460 lung; assay: NCI-60 cell line screen, 48 h

Question: How did the TGI turn out when `CN1CCN(CCCNN)CC1` was run?
Answer: > 100 µM

Question: Which TGI does the source give for `CC(C)(C)[Si](C)(C)OC1(CCc2ccccc2OS(=O)(=O)C(F)(F)F)CCCC=C1COCc1ccccc1` (stereo unspecified) here?
Answer: > 100 µM

Question: For `C=CCOC1=C(OC(C)=O)C(=O)OC1C1COC(C)(C)O1` (stereo unspecified), which TGI is on record?
Answer: > 100 µM

Question: How did the TGI turn out when `Clc1ccc(-c2nc3ccc(Cl)cc3[nH]2)cc1` was run?
Answer: 98.4 µM

test system: NCI-H522 lung; assay: NCI-60 cell line screen, 48 h

Question: For `CN1CCN(CCCNN)CC1`, which TGI is on record?
Answer: > 100 µM

Question: `C=CCOC1=C(OC(C)=O)C(=O)OC1C1COC(C)(C)O1` (stereo unspecified) was tested. Which TGI did it give?
Answer: 34.6 µM

Question: For `Clc1ccc(-c2nc3ccc(Cl)cc3[nH]2)cc1`, which TGI is on record?
Answer: 80.1 µM

Question: How did the TGI turn out when `O=C(Nc1ccn(C2CCC(CO)O2)c(=O)n1)c1ccccc1` (stereo unspecified) was run?
Answer: > 100 µM

test system: NCI/ADR-RES ovarian; assay: NCI-60 cell line screen, 48 h

Question: How did the TGI turn out when `CN1CCN(CCCNN)CC1` was run?
Answer: > 100 µM

Question: How did the TGI turn out when `CC(C)(C)[Si](C)(C)OC1(CCc2ccccc2OS(=O)(=O)C(F)(F)F)CCCC=C1COCc1ccccc1` (stereo unspecified) was run?
Answer: > 100 µM

Question: `C=CCOC1=C(OC(C)=O)C(=O)OC1C1COC(C)(C)O1` (stereo unspecified) was tested. Which TGI did it give?
Answer: > 100 µM

Question: `Clc1ccc(-c2nc3ccc(Cl)cc3[nH]2)cc1` was tested. Which TGI did it give?
Answer: 56.1 µM

Question: Which TGI does the source give for `O=C(Nc1ccn(C2CCC(CO)O2)c(=O)n1)c1ccccc1` (stereo unspecified) here?
Answer: > 100 µM

test system: OVCAR-3 ovarian; assay: NCI-60 cell line screen, 48 h

Question: With `CN1CCN(CCCNN)CC1` as the compound, how does the TGI read?
Answer: > 100 µM

Question: With `CC(C)(C)[Si](C)(C)OC1(CCc2ccccc2OS(=O)(=O)C(F)(F)F)CCCC=C1COCc1ccccc1` (stereo unspecified) as the compound, how does the TGI read?
Answer: > 100 µM

Question: Which TGI does the source give for `C=CCOC1=C(OC(C)=O)C(=O)OC1C1COC(C)(C)O1` (stereo unspecified) here?
Answer: 31.4 µM

Question: For `Clc1ccc(-c2nc3ccc(Cl)cc3[nH]2)cc1`, which TGI is on record?
Answer: 96.5 µM

test system: OVCAR-4 ovarian; assay: NCI-60 cell line screen, 48 h

Question: With `CN1CCN(CCCNN)CC1` as the compound, how does the TGI read?
Answer: > 100 µM

Question: How did the TGI turn out when `CC(C)(C)[Si](C)(C)OC1(CCc2ccccc2OS(=O)(=O)C(F)(F)F)CCCC=C1COCc1ccccc1` (stereo unspecified) was run?
Answer: > 100 µM

Question: Which TGI does the source give for `C=CCOC1=C(OC(C)=O)C(=O)OC1C1COC(C)(C)O1` (stereo unspecified) here?
Answer: 32.1 µM

Question: `Clc1ccc(-c2nc3ccc(Cl)cc3[nH]2)cc1` was tested. Which TGI did it give?
Answer: > 100 µM

test system: OVCAR-5 ovarian; assay: NCI-60 cell line screen, 48 h

Question: How did the TGI turn out when `CN1CCN(CCCNN)CC1` was run?
Answer: > 100 µM

Question: With `CC(C)(C)[Si](C)(C)OC1(CCc2ccccc2OS(=O)(=O)C(F)(F)F)CCCC=C1COCc1ccccc1` (stereo unspecified) as the compound, how does the TGI read?
Answer: > 100 µM

Question: For `C=CCOC1=C(OC(C)=O)C(=O)OC1C1COC(C)(C)O1` (stereo unspecified), which TGI is on record?
Answer: > 100 µM

Question: Which TGI does the source give for `O=C(Nc1ccn(C2CCC(CO)O2)c(=O)n1)c1ccccc1` (stereo unspecified) here?
Answer: > 100 µM

test system: OVCAR-8 ovarian; assay: NCI-60 cell line screen, 48 h

Question: With `CN1CCN(CCCNN)CC1` as the compound, how does the TGI read?
Answer: > 100 µM

Question: With `CC(C)(C)[Si](C)(C)OC1(CCc2ccccc2OS(=O)(=O)C(F)(F)F)CCCC=C1COCc1ccccc1` (stereo unspecified) as the compound, how does the TGI read?
Answer: > 100 µM

Question: How did the TGI turn out when `C=CCOC1=C(OC(C)=O)C(=O)OC1C1COC(C)(C)O1` (stereo unspecified) was run?
Answer: > 84.6 µM

Question: With `Clc1ccc(-c2nc3ccc(Cl)cc3[nH]2)cc1` as the compound, how does the TGI read?
Answer: > 100 µM

Question: `O=C(Nc1ccn(C2CCC(CO)O2)c(=O)n1)c1ccccc1` (stereo unspecified) was tested. Which TGI did it give?
Answer: > 100 µM

test system: PC-3 prostate; assay: NCI-60 cell line screen, 48 h

Question: How did the TGI turn out when `CN1CCN(CCCNN)CC1` was run?
Answer: > 100 µM

Question: How did the TGI turn out when `CC(C)(C)[Si](C)(C)OC1(CCc2ccccc2OS(=O)(=O)C(F)(F)F)CCCC=C1COCc1ccccc1` (stereo unspecified) was run?
Answer: > 100 µM

Question: `C=CCOC1=C(OC(C)=O)C(=O)OC1C1COC(C)(C)O1` (stereo unspecified) was tested. Which TGI did it give?
Answer: > 100 µM

Question: `Clc1ccc(-c2nc3ccc(Cl)cc3[nH]2)cc1` was tested. Which TGI did it give?
Answer: 77.5 µM

Question: With `O=C(Nc1ccn(C2CCC(CO)O2)c(=O)n1)c1ccccc1` (stereo unspecified) as the compound, how does the TGI read?
Answer: > 100 µM

test system: RPMI-8226 leukemia; assay: NCI-60 cell line screen, 48 h

Question: `CN1CCN(CCCNN)CC1` was tested. Which TGI did it give?
Answer: > 100 µM

Question: Which TGI does the source give for `CC(C)(C)[Si](C)(C)OC1(CCc2ccccc2OS(=O)(=O)C(F)(F)F)CCCC=C1COCc1ccccc1` (stereo unspecified) here?
Answer: > 52.7 µM

Question: For `C=CCOC1=C(OC(C)=O)C(=O)OC1C1COC(C)(C)O1` (stereo unspecified), which TGI is on record?
Answer: > 100 µM

Question: For `Clc1ccc(-c2nc3ccc(Cl)cc3[nH]2)cc1`, which TGI is on record?
Answer: 79.1 µM

Question: With `O=C(Nc1ccn(C2CCC(CO)O2)c(=O)n1)c1ccccc1` (stereo unspecified) as the compound, how does the TGI read?
Answer: > 100 µM

test system: RXF 393 renal; assay: NCI-60 cell line screen, 48 h

Question: For `CN1CCN(CCCNN)CC1`, which TGI is on record?
Answer: > 100 µM

Question: With `CC(C)(C)[Si](C)(C)OC1(CCc2ccccc2OS(=O)(=O)C(F)(F)F)CCCC=C1COCc1ccccc1` (stereo unspecified) as the compound, how does the TGI read?
Answer: 90.8 µM

Question: `C=CCOC1=C(OC(C)=O)C(=O)OC1C1COC(C)(C)O1` (stereo unspecified) was tested. Which TGI did it give?
Answer: > 56.5 µM

Question: Which TGI does the source give for `Clc1ccc(-c2nc3ccc(Cl)cc3[nH]2)cc1` here?
Answer: > 100 µM

Question: Which TGI does the source give for `O=C(Nc1ccn(C2CCC(CO)O2)c(=O)n1)c1ccccc1` (stereo unspecified) here?
Answer: > 100 µM

test system: SF-268 CNS; assay: NCI-60 cell line screen, 48 h

Question: For `CN1CCN(CCCNN)CC1`, which TGI is on record?
Answer: > 100 µM

Question: How did the TGI turn out when `CC(C)(C)[Si](C)(C)OC1(CCc2ccccc2OS(=O)(=O)C(F)(F)F)CCCC=C1COCc1ccccc1` (stereo unspecified) was run?
Answer: > 100 µM

Question: `C=CCOC1=C(OC(C)=O)C(=O)OC1C1COC(C)(C)O1` (stereo unspecified) was tested. Which TGI did it give?
Answer: > 100 µM

Question: Which TGI does the source give for `Clc1ccc(-c2nc3ccc(Cl)cc3[nH]2)cc1` here?
Answer: > 100 µM

Question: Which TGI does the source give for `O=C(Nc1ccn(C2CCC(CO)O2)c(=O)n1)c1ccccc1` (stereo unspecified) here?
Answer: > 100 µM

test system: SF-295 CNS; assay: NCI-60 cell line screen, 48 h

Question: With `CN1CCN(CCCNN)CC1` as the compound, how does the TGI read?
Answer: > 100 µM

Question: How did the TGI turn out when `CC(C)(C)[Si](C)(C)OC1(CCc2ccccc2OS(=O)(=O)C(F)(F)F)CCCC=C1COCc1ccccc1` (stereo unspecified) was run?
Answer: > 100 µM

Question: With `C=CCOC1=C(OC(C)=O)C(=O)OC1C1COC(C)(C)O1` (stereo unspecified) as the compound, how does the TGI read?
Answer: > 100 µM

Question: How did the TGI turn out when `Clc1ccc(-c2nc3ccc(Cl)cc3[nH]2)cc1` was run?
Answer: 74.9 µM

Question: How did the TGI turn out when `O=C(Nc1ccn(C2CCC(CO)O2)c(=O)n1)c1ccccc1` (stereo unspecified) was run?
Answer: > 100 µM

test system: SF-539 CNS; assay: NCI-60 cell line screen, 48 h

Question: How did the TGI turn out when `CN1CCN(CCCNN)CC1` was run?
Answer: > 100 µM

Question: `CC(C)(C)[Si](C)(C)OC1(CCc2ccccc2OS(=O)(=O)C(F)(F)F)CCCC=C1COCc1ccccc1` (stereo unspecified) was tested. Which TGI did it give?
Answer: > 100 µM

Question: `C=CCOC1=C(OC(C)=O)C(=O)OC1C1COC(C)(C)O1` (stereo unspecified) was tested. Which TGI did it give?
Answer: > 74.8 µM

Question: `Clc1ccc(-c2nc3ccc(Cl)cc3[nH]2)cc1` was tested. Which TGI did it give?
Answer: > 100 µM

Question: `O=C(Nc1ccn(C2CCC(CO)O2)c(=O)n1)c1ccccc1` (stereo unspecified) was tested. Which TGI did it give?
Answer: > 100 µM

test system: SK-MEL-2 melanoma; assay: NCI-60 cell line screen, 48 h

Question: With `CN1CCN(CCCNN)CC1` as the compound, how does the TGI read?
Answer: > 100 µM

Question: `CC(C)(C)[Si](C)(C)OC1(CCc2ccccc2OS(=O)(=O)C(F)(F)F)CCCC=C1COCc1ccccc1` (stereo unspecified) was tested. Which TGI did it give?
Answer: > 100 µM

Question: `C=CCOC1=C(OC(C)=O)C(=O)OC1C1COC(C)(C)O1` (stereo unspecified) was tested. Which TGI did it give?
Answer: 98.9 µM

Question: How did the TGI turn out when `Clc1ccc(-c2nc3ccc(Cl)cc3[nH]2)cc1` was run?
Answer: 67.4 µM
